Measurements published in patent publication US10105357B2, “Indication of antibiotic drugs for preparation of cancer inhibition pharmaceutical composition” (LAUNX BIOMEDICAL CO., LTD., priority 2014, dated 2018).
Where a name gives a salt, the structure may show the parent alone. Read-outs that look alike come from different tables or passages of the source.

How the values were obtained:
Format in all cases: cell-based, human
[1] = tested on: HL-60 (Acute Promyelocytic Leukemia); test: Cell viability analysis, leukemia HL-60; settings: Homo sapiens
[2] = tested on: LoVo (Colorectal Adenocarcinoma); test: Cell viability analysis, colon cancer LoVo; settings: Homo sapiens, LoVo
cancer cell lines = test: Cell viability analysis (WST-1) on cancer cell lines; settings: drug 10 μM, 72 hours, WST-1; Table 3
[3] = tested on: A549 (Lung Adenocarcinoma); test: Cell viability analysis, lung cancer A549; settings: Homo sapiens
[4] = tested on: AGS (Gastric Adenocarcinoma); test: Cell viability analysis, gastric cancer AGS; settings: Homo sapiens
[5] = tested on: TSGH-8301 (Urinary Bladder Carcinoma); test: Cell viability analysis, bladder cancer TSGH-8301; settings: Homo sapiens
[6] = tested on: HeLa (Cervix Adenocarcinoma); test: Cell viability analysis, cervical cancer HeLa; settings: Homo sapiens, HeLa
[7] = tested on: A375 (Amelanotic Melanoma); test: Cell viability analysis, skin cancer A375; settings: Homo sapiens
[8] = tested on: HI650 (Lung Adenocarcinoma); test: Cell viability analysis, lung cancer HI650; settings: Homo sapiens
[9] = tested on: MCF7 (Mammary Gland, Adenocarcinoma); test: Cell viability analysis, breast cancer MCF7; settings: Homo sapiens
[10] = tested on: HepG2 (Hepatocellular Carcinoma); test: Cell viability analysis, hepatic cancer HepG2; settings: Homo sapiens
[11] = tested on: PC3 (p53−) (Prostate Adenocarcinoma); test: Cell viability analysis, prostate cancer PC3; settings: Homo sapiens
[12] = tested on: MKN-45 (Gastric Adenocarcinoma); test: Cell viability analysis, gastric cancer MKN-45; settings: Homo sapiens
[13] = HL-60, 72 h, read-out: cell viability (survival rate), HL-60, drug 10 μM, 72 hours, WST-1, OD450 nm
[14] = 72 h, read-out: cell viability (survival rate), LoVo, drug 10 μM, 72 hours, WST-1, OD450 nm
[15] = A549, 72 h, read-out: cell viability (survival rate), A549, drug 10 μM, 72 hours, WST-1, OD450 nm
[16] = 72 h, read-out: cell viability (survival rate), AGS, drug 10 μM, 72 hours, WST-1, OD450 nm
[17] = 72 h, read-out: cell viability (survival rate), TSGH, drug 10 μM, 72 hours, WST-1, OD450 nm
[18] = 72 h, read-out: cell viability (survival rate), HeLa, drug 10 μM, 72 hours, WST-1, OD450 nm
[19] = A-375, 72 h, read-out: cell viability (survival rate), A375, drug 10 μM, 72 hours, WST-1, OD450 nm
[20] = NCI-H1650, 72 h, read-out: cell viability (survival rate), H1650, drug 10 μM, 72 hours, WST-1, OD450 nm
[21] = MCF7, 72 h, read-out: cell viability (survival rate), MCF7, drug 10 μM, 72 hours, WST-1, OD450 nm
[22] = HepG2, 72 h, read-out: cell viability (survival rate), HepG2, drug 10 μM, 72 hours, WST-1, OD450 nm
[23] = 72 h, read-out: cell viability (survival rate), PC3, drug 10 μM, 72 hours, WST-1, OD450 nm
[24] = MKN-45, 72 h, read-out: cell viability (survival rate), MKN-45, drug 10 μM, 72 hours, WST-1, OD450 nm

| SMILES | viability at 10 µM [1, 13] [%] | viability at 10 µM [2, 14] [%] | inhibition effect on different cancer cell lines (cancer cell lines) | viability at 10 µM [3, 15] [%] | viability at 10 µM [4, 16] [%] | viability at 10 µM [5, 17] [%] | viability at 10 µM [6, 18] [%] | viability at 10 µM [7, 19] [%] | viability at 10 µM [8, 20] [%] | viability at 10 µM [9, 21] [%] | viability at 10 µM [10, 22] [%] | viability at 10 µM [11, 23] [%] | viability at 10 µM [12, 24] [%] | also measured |
| --- | --- | --- | --- | --- | --- | --- | --- | --- | --- | --- | --- | --- | --- | --- |
| Nc1ccc(S(=O)(=O)Nc2nccs2)cc1 [Sulfathiazole] | 96.7 | 78.1 | significant inhibition effect | 47.2 | 54.6 | 54.5 | 47.7 | 30.8 | 38.8 | 60.1 | 65.7 | 94.9 | 30.8 | – |
| COc1cc(NS(=O)(=O)c2ccc(N)cc2)nc(OC)n1 [Sulphadimethoxine] | 120 | 70.8 | significant inhibition effect | 100 | 99.3 | 132 | 68.8 | 76 | 83.1 | 94.3 | 90.3 | 94 | 72 | – |
| NCCS(=O)(=O)O [Taurine] | 116 | 98.5 | significant inhibition effect | 84 | 64.1 | 110 | 84.9 | 77.6 | 46.1 | 91.5 | 93.1 | 61.1 | 61.6 | – |
| Cc1cn([C@@H]2C[C@@H](O)[C@H](CO)O2)c(=O)[nH]c1=O [Telbivudine (Sebivo, Tyzeka), Telbivudine] | 100 | 65.3 | significant inhibition effect | 43.7 | 27.5 | 50.4 | 51.9 | 57.5 | 67.5 | 31.9 | 94.4 | 53.6 | 36.2 | – |
| CC(C)OC(=O)OCOP(=O)(CO[C@H](C)Cn1cnc2c(N)ncnc21)OCOC(=O)OC(C)C [Tenofovir Disoproxil Fumarate] | – | – | significant inhibition effect | – | – | – | – | – | – | – | – | – | – | viability at 10 µM ([1]; HL-60, drug 10 μM, 72 hours, WST-1, OD450 nm, read-out: cell viability (survival rate), HL-60): 93.4%; viability at 10 µM ([2]; drug 10 μM, 72 hours, WST-1, OD450 nm, read-out: cell viability (survival rate), LoVo): 75.8%; viability at 10 µM ([3]; A549, drug 10 μM, 72 hours, WST-1, OD450 nm, read-out: cell viability (survival rate), A549): 47%; viability at 10 µM ([4]; drug 10 μM, 72 hours, WST-1, OD450 nm, read-out: cell viability (survival rate), AGS): 54.7%; viability at 10 µM ([5]; drug 10 μM, 72 hours, WST-1, OD450 nm, read-out: cell viability (survival rate), TSGH): 88.2%; viability at 10 µM ([6]; drug 10 μM, 72 hours, WST-1, OD450 nm, read-out: cell viability (survival rate), HeLa): 85.7%; viability at 10 µM ([7]; A-375, drug 10 μM, 72 hours, WST-1, OD450 nm, read-out: cell viability (survival rate), A375): 67.1%; viability at 10 µM ([8]; NCI-H1650, drug 10 μM, 72 hours, WST-1, OD450 nm, read-out: cell viability (survival rate), H1650): 50.9%; viability at 10 µM ([9]; MCF7, drug 10 μM, 72 hours, WST-1, OD450 nm, read-out: cell viability (survival rate), MCF7): 68.7%; viability at 10 µM ([10]; HepG2, drug 10 μM, 72 hours, WST-1, OD450 nm, read-out: cell viability (survival rate), HepG2): 93.7%; viability at 10 µM ([11]; drug 10 μM, 72 hours, WST-1, OD450 nm, read-out: cell viability (survival rate), PC3): 66.9%; viability at 10 µM ([12]; MKN-45, drug 10 μM, 72 hours, WST-1, OD450 nm, read-out: cell viability (survival rate), MKN-45): 71.6% |
| COc1cc2nc(N3CCN(C(=O)C4CCCO4)CC3)nc(N)c2cc1OC (stereo not shown) [Terazos in HCl (Hytrin), Terazosin HCl] | 111 | 45.7 | significant inhibition effect | 21.3 | 56.8 | 71.6 | 60.7 | 77.9 | 74.9 | 33.4 | 93.4 | 40.5 | 82.1 | – |
| CC[C@H]1OC(=O)C[C@@H](O)[C@H](C)[C@@H](O[C@@H]2O[C@H](C)[C@@H](O)[C@H](N(C)C)[C@H]2O)[C@@H](CCN2C[C@H](C)C[C@H](C)C2)C[C@@H](C)C(=O)/C=C/C(C)=C/[C@@H]1CO[C@@H]1O[C@H](C)[C@@H](O)[C@@H](OC)[C@H]1OC [Tilmicosin] | – | 83.8 | significant inhibition effect | – | – | – | – | – | – | – | – | – | – | viability at 10 µM ([1]; HL-60, 72 h, drug 10 μM, 72 hours, WST-1, OD450 nm, read-out: cell viability (survival rate), HL-60): 75%; viability at 10 µM ([3]; A549, 72 h, drug 10 μM, 72 hours, WST-1, OD450 nm, read-out: cell viability (survival rate), A549): 53.5%; viability at 10 µM ([4]; 72 h, drug 10 μM, 72 hours, WST-1, OD450 nm, read-out: cell viability (survival rate), AGS): 102%; viability at 10 µM ([5]; 72 h, drug 10 μM, 72 hours, WST-1, OD450 nm, read-out: cell viability (survival rate), TSGH): 56.5%; viability at 10 µM ([6]; 72 h, drug 10 μM, 72 hours, WST-1, OD450 nm, read-out: cell viability (survival rate), HeLa): 67%; viability at 10 µM ([7]; A-375, 72 h, drug 10 μM, 72 hours, WST-1, OD450 nm, read-out: cell viability (survival rate), A375): 54.7%; viability at 10 µM ([8]; NCI-H1650, 72 h, drug 10 μM, 72 hours, WST-1, OD450 nm, read-out: cell viability (survival rate), H1650): 72.7%; viability at 10 µM ([9]; MCF7, 72 h, drug 10 μM, 72 hours, WST-1, OD450 nm, read-out: cell viability (survival rate), MCF7): 39.1%; viability at 10 µM ([10]; HepG2, 72 h, drug 10 μM, 72 hours, WST-1, OD450 nm, read-out: cell viability (survival rate), HepG2): 92.1%; viability at 10 µM ([11]; 72 h, drug 10 μM, 72 hours, WST-1, OD450 nm, read-out: cell viability (survival rate), PC3): 81.5%; viability at 10 µM ([12]; MKN-45, 72 h, drug 10 μM, 72 hours, WST-1, OD450 nm, read-out: cell viability (survival rate), MKN-45): 52.1% |
| C[N+]1(C)[C@@H]2C[C@@H](OC(=O)C(O)(c3cccs3)c3cccs3)C[C@H]1[C@@H]1O[C@@H]12 [Tiotropium Bromide hydrate] | 87.8 | 88.7 | significant inhibition effect | 62 | 73.1 | 54.7 | 124 | 86.3 | 40.9 | 80 | 90.9 | 83.8 | 86.1 | – |
| CC(=O)Oc1cc(C(F)(F)F)ccc1C(=O)O [Triflusal] | 93.3 | 103 | significant inhibition effect | 112 | 93.3 | 86.5 | 105 | 95.9 | 81.3 | 97.8 | 103 | 87.5 | 134 | – |
| COc1cc(Cc2cnc(N)nc2N)cc(OC)c1OC [Trimethoprim] | 96.8 | 98.7 | significant inhibition effect | 125 | 97.7 | 92.4 | 89 | 83.6 | 108 | 104 | 102 | 151 | 73.6 | – |
